Test results published in ChEMBL document CHEMBL1124865, “Synthesis and biological evaluation of a series of parenteral 3'-quaternary ammonium cephalosporins” (J Med Chem, 1990).
Values after ≈ are worked out from the molar mass of the structure shown.

Columns and labels:
Format in all cases: functional
Pseudomonas aeruginosa [1] = assay: Antibacterial activity against Pseudomonas aeruginosa X528
Enterobacter cloacae [2] = assay: Antibacterial activity against Enterobacter cloacae 265A; conditions: Enterobacter cloacae; read-out: MIC
Staphylococcus aureus [3] = assay: Antibacterial activity against penicillin G susceptible Staphylococcus aureus; conditions: Staphylococcus aureus; read-out: MIC
Serratia marcescens = assay: Antibacterial activity against Serratia marcescens SE3; conditions: Serratia marcescens; read-out: MIC
Enterococcus faecium = assay: Antibacterial activity against Enterococcus faecium; conditions: Enterococcus faecium; read-out: MIC
Escherichia coli [4] = assay: Antibacterial activity against Escherichia coli EC14; conditions: Escherichia coli; read-out: MIC
Klebsiella pneumoniae [5] = assay: microbe, parasite or virus in culture; conditions: Klebsiella pneumoniae; read-out: MIC
Description: Antibacterial activity against Klebsiella pneumoniae 1082E

Staphylococcus aureus [6] = assay: Antibacterial activity against penicillin G resistance Staphylococcus aureus; conditions: Staphylococcus aureus; read-out: MIC
Enterobacter cloacae [7] = assay: Antibacterial activity against Enterobacter cloacae EB5; conditions: Enterobacter cloacae; read-out: MIC
Streptococcus pneumoniae = assay: Antibacterial activity against Streptococcus pneumoniae; conditions: Streptococcus pneumoniae; read-out: MIC
Pseudomonas aeruginosa [8] = assay: Antibacterial activity against Pseudomonas aeruginosa PS18; conditions: Pseudomonas aeruginosa; read-out: MIC
Klebsiella pneumoniae [9] = assay: Antibacterial activity against Klebsiella pneumoniae X26; conditions: Klebsiella pneumoniae; read-out: MIC
Streptococcus pyogenes = assay: Antibacterial activity against Streptococcus pyogenes; conditions: Streptococcus pyogenes; read-out: MIC
Escherichia coli [10] = assay: Antibacterial activity against Escherichia coli TEM; conditions: Escherichia coli; read-out: MIC
[11] = Pseudomonas aeruginosa, read-out: MIC

Structure (SMILES)	MIC (Pseudomonas aeruginosa [1])	MIC (Enterobacter cloacae [2])	MIC (Staphylococcus aureus [3])	MIC (Serratia marcescens)	MIC (Enterococcus faecium)	MIC (Escherichia coli [4])	MIC (Klebsiella pneumoniae [5])	MIC (Staphylococcus aureus [6])	MIC (Enterobacter cloacae [7])	MIC (Streptococcus pneumoniae)	MIC (Pseudomonas aeruginosa [8])	MIC (Klebsiella pneumoniae [9])	MIC (Streptococcus pyogenes)	MIC (Pseudomonas aeruginosa [1]; [11])	MIC (Escherichia coli [10])
CO/N=C(\C(=O)N[C@@H]1C(=O)N2C(C(=O)[O-])=C(C[n+]3ccc(CC(=O)NO)cc3)CS[C@H]12)c1csc(N)n1 (stereo in doubt; 19)	2 µg/mL (≈ 3.65 µM)														
CO/N=C(\C(=O)N[C@@H]1C(=O)N2C(C(=O)[O-])=C(C[n+]3ccc(Cl)cc3)CS[C@H]12)c1csc(N)n1		32 µg/mL (≈ 62.9 µM)	2 µg/mL (≈ 3.93 µM)	0.25 µg/mL (≈ 0.491 µM)	> 128 µg/mL	0.06 µg/mL (≈ 0.118 µM)	16 µg/mL (≈ 31.4 µM)	4 µg/mL (≈ 7.86 µM)	0.25 µg/mL (≈ 0.491 µM)	0.03 µg/mL (≈ 0.0589 µM)	16 µg/mL (≈ 31.4 µM)	0.03 µg/mL (≈ 0.0589 µM)	0.015 µg/mL (≈ 0.0295 µM)	4 µg/mL (≈ 7.86 µM)	0.03 µg/mL (≈ 0.0589 µM)
CO/N=C(\C(=O)N[C@@H]1C(=O)N2C(C(=O)[O-])=C(C[n+]3cccc4c3CCCC4)CS[C@H]12)c1csc(N)n1 [CEFQUINOME]		2 µg/mL (≈ 3.78 µM)	1 µg/mL (≈ 1.89 µM)	0.125 µg/mL (≈ 0.236 µM)	128 µg/mL (≈ 242 µM)	0.03 µg/mL (≈ 0.0568 µM)	4 µg/mL (≈ 7.57 µM)	2 µg/mL (≈ 3.78 µM)	0.125 µg/mL (≈ 0.236 µM)	0.015 µg/mL (≈ 0.0284 µM)	16 µg/mL (≈ 30.3 µM)	0.03 µg/mL (≈ 0.0568 µM)	< 0.008 µg/mL	4 µg/mL (≈ 7.57 µM)	0.03 µg/mL (≈ 0.0568 µM)
CCc1nc2c[n+](CC3=C(C(=O)[O-])N4C(=O)[C@@H](NC(=O)/C(=N\OC)c5csc(N)n5)[C@H]4SC3)ccc2s1		4 µg/mL (≈ 7.15 µM)	1 µg/mL (≈ 1.79 µM)		128 µg/mL (≈ 229 µM)	0.015 µg/mL (≈ 0.0268 µM)	2 µg/mL (≈ 3.57 µM)	4 µg/mL (≈ 7.15 µM)		0.008 µg/mL (≈ 0.0143 µM)	16 µg/mL (≈ 28.6 µM)	0.008 µg/mL (≈ 0.0143 µM)	0.008 µg/mL (≈ 0.0143 µM)	4 µg/mL (≈ 7.15 µM)	0.015 µg/mL (≈ 0.0268 µM)
CO/N=C(\C(=O)N[C@@H]1C(=O)N2C(C(=O)O)=C(COC(C)=O)CS[C@H]12)c1csc(N)n1 [CEFOTAXIME]		32 µg/mL (≈ 70.3 µM)	2 µg/mL (≈ 4.39 µM)	0.25 µg/mL (≈ 0.549 µM)	> 128 µg/mL	0.03 µg/mL (≈ 0.0659 µM)	1 µg/mL (≈ 2.2 µM)	16 µg/mL (≈ 35.1 µM)	0.25 µg/mL (≈ 0.549 µM)	0.015 µg/mL (≈ 0.0329 µM)	64 µg/mL (≈ 141 µM)	0.008 µg/mL (≈ 0.0176 µM)	0.015 µg/mL (≈ 0.0329 µM)	32 µg/mL (≈ 70.3 µM)	0.03 µg/mL (≈ 0.0659 µM)
C=Cc1sc[n+](CC2=C(C(=O)[O-])N3C(=O)[C@@H](NC(=O)/C(=N\OC)c4csc(N)n4)[C@H]3SC2)c1C		4 µg/mL (≈ 7.68 µM)	2 µg/mL (≈ 3.84 µM)	0.25 µg/mL (≈ 0.48 µM)	32 µg/mL (≈ 61.5 µM)	0.06 µg/mL (≈ 0.115 µM)	4 µg/mL (≈ 7.68 µM)	4 µg/mL (≈ 7.68 µM)	0.25 µg/mL (≈ 0.48 µM)	0.06 µg/mL (≈ 0.115 µM)	32 µg/mL (≈ 61.5 µM)	0.06 µg/mL (≈ 0.115 µM)	0.03 µg/mL (≈ 0.0576 µM)	16 µg/mL (≈ 30.7 µM)	0.03 µg/mL (≈ 0.0576 µM)
CCC(C)Nc1nc2cc[n+](CC3=C(C(=O)[O-])N4C(=O)[C@@H](NC(=O)/C(=N\OC)c5csc(N)n5)[C@H]4SC3)cc2s1 (stereo not given in full)		2 µg/mL (≈ 3.32 µM)	0.5 µg/mL (≈ 0.83 µM)	0.5 µg/mL (≈ 0.83 µM)	128 µg/mL (≈ 212 µM)	0.06 µg/mL (≈ 0.0995 µM)	2 µg/mL (≈ 3.32 µM)	0.5 µg/mL (≈ 0.83 µM)	0.25 µg/mL (≈ 0.415 µM)	0.008 µg/mL (≈ 0.0133 µM)	128 µg/mL (≈ 212 µM)	0.008 µg/mL (≈ 0.0133 µM)	0.008 µg/mL (≈ 0.0133 µM)	16 µg/mL (≈ 26.5 µM)	0.015 µg/mL (≈ 0.0249 µM)
CO/N=C(\C(=O)N[C@@H]1C(=O)N2C(C(=O)[O-])=C(C[n+]3ccc4scnc4c3)CS[C@H]12)c1csc(N)n1		8 µg/mL (≈ 15 µM)	1 µg/mL (≈ 1.88 µM)			0.015 µg/mL (≈ 0.0282 µM)	4 µg/mL (≈ 7.52 µM)	8 µg/mL (≈ 15 µM)		0.015 µg/mL (≈ 0.0282 µM)	4 µg/mL (≈ 7.52 µM)	0.015 µg/mL (≈ 0.0282 µM)	0.015 µg/mL (≈ 0.0282 µM)	1 µg/mL (≈ 1.88 µM)	
CO/N=C(\C(=O)N[C@@H]1C(=O)N2C(C(=O)[O-])=C(C[n+]3ccc4[nH]c(-c5cccs5)nc4c3)CS[C@H]12)c1csc(N)n1			2 µg/mL (≈ 3.35 µM)	1 µg/mL (≈ 1.68 µM)	128 µg/mL (≈ 215 µM)		4 µg/mL (≈ 6.7 µM)	8 µg/mL (≈ 13.4 µM)	0.5 µg/mL (≈ 0.838 µM)	0.008 µg/mL (≈ 0.0134 µM)	128 µg/mL (≈ 215 µM)	0.015 µg/mL (≈ 0.0251 µM)	0.008 µg/mL (≈ 0.0134 µM)		
CO/N=C(\C(=O)N[C@@H]1C(=O)N2C(C(=O)[O-])=C(C[n+]3ccc4[nH]c(-c5ccccc5)nc4c3)CS[C@H]12)c1csc(N)n1			2 µg/mL (≈ 3.39 µM)	1 µg/mL (≈ 1.69 µM)	128 µg/mL (≈ 217 µM)		2 µg/mL (≈ 3.39 µM)	8 µg/mL (≈ 13.5 µM)	0.5 µg/mL (≈ 0.847 µM)	0.008 µg/mL (≈ 0.0135 µM)	128 µg/mL (≈ 217 µM)	0.015 µg/mL (≈ 0.0254 µM)	0.008 µg/mL (≈ 0.0135 µM)		
CO/N=C(\C(=O)N[C@@H]1C(=O)N2C(C(=O)[O-])=C(C[n+]3ccc4[nH]c(C)nc4c3)CS[C@H]12)c1csc(N)n1		8 µg/mL (≈ 15.1 µM)	2 µg/mL (≈ 3.78 µM)		128 µg/mL (≈ 242 µM)	0.008 µg/mL (≈ 0.0151 µM)	2 µg/mL (≈ 3.78 µM)	8 µg/mL (≈ 15.1 µM)		0.008 µg/mL (≈ 0.0151 µM)	8 µg/mL (≈ 15.1 µM)	0.008 µg/mL (≈ 0.0151 µM)	0.008 µg/mL (≈ 0.0151 µM)	2 µg/mL (≈ 3.78 µM)	0.008 µg/mL (≈ 0.0151 µM)
